According to patent US20260053760A1, “Compositions Suitable for Use on Skin Afflicted with Eczema” (Kenvue Brands LLC, priority 2022, published 2026):

System: Staphylococcus epidermidis (ATCC 12228)
Experiment: In vitro bacteria competition assay (co-culture)
Type: cell-based
Conditions: 1:1 co-culture with S. aureus in Nutrient Broth, 24 hours aerobic, colony counts; percentages w/v %
Method: In vitro bacteria competition assay evaluated Staphylococcus epidermidis (ATCC 12228, skin health associated strain) and Staphylococcus aureus (ATCC 6538, human lesion isolate) co-culture in the presence of test materials. Percentages are w/v % in liquid medium (Nutrient Broth, Culture Media and Supplies Inc.) To mimic the microenvironment of the skin surface, an aerobic, co-culture system of S. epidermidis and S. aureus was established. 50 μL S. epidermidis and 50 μL S. aureus (a 1:1 ratio) were inoculated (50 μL at approximately 5.0×10^6 CFU/mL each) in Nutrient Broth and in the presence of the test materials as specified in Table 14 below. [table] Test groups were incubated aerobically for 24 hours (n=3 per test group) After 24 hours, each test group was plated onto agar and incubated aerobically for 24 hours […]. After incubation, colonies were counted, and CFU/mL calculated. S. epidermidis and S. aureus colonies were differentiated on agar (Tryptic Soy Agar+5% sheep's blood, BD Diagnostics) based on representative morphology.

## CC(O)C(=O)O (stereo not shown) [Lactic Acid (1.1%), Lactic acid]
  Bacteria Competition Assay: S. epidermidis growth versus untreated: inhibited
